Key:
Assay type in all cases: physicochemical
[1] = Cocrystal screening by slurry method (Comparative Examples 4-1 to 4-6), powder X-ray diffraction; parameters: key: A cocrystal was completely formed.; B: A mixture of a cocrystal and the host compound or guest compound was formed.; C: A cocrystal was not formed (a mixture of the host compound and the guest compound was formed).; —: A residue was not obtained; details: host carbamazepine, room temperature 7 days; for Cocrystal formation, Comparative Example 4-3: slurry in tetrahydrofuran
Protocol: 3 mg (0.0127 mmoles) of carbamazepine and a guest compound shown in Table 4 in an equimolar amount (0.0127 mmoles) to carbamazepine were weighed and put into a glass container, to which was then added 60 μL of water. These were shaken at room temperature for 7 days, and the obtained residues were subjected to powder X-ray diffraction measurement. 3 mg (0.0127 mmoles) of carbamazepine and a guest compound shown in Table 4 in an equimolar amount (0.0127 mmoles) to carbamazepine were weighed and put into a glass container, to which was then added 60 μL of ethanol. These were shaken at room temperature for 7 days, and the obtained residues were subjected to powder X-ray diffraction measurement. 3 mg (0.0127 mmoles) of carbamazepine and a guest compound shown in Table 4 in an equimolar amount (0.0127 mmoles) to carbamazepine were weighed and put into a glass container, to which was then added 60 μL of tetrahydrofuran. These were shaken at room temperature for 7 days, and the obtained residues were subjected to powder X-ray diffraction measurement. 3 mg (0.0127 mmoles) of carbamazepine and a guest compound shown in Table 4 in an equimolar amount (0.0127 mmoles) to carbamazepine were weighed and put into a glass container, to which was then added 60 μL of toluene. These were shaken at room temperature for 7 days, and the obtained residues were subjected to powder X-ray diffraction measurement. 3 mg (0.0127 mmoles) of carbamazepine and a guest compound shown in Table 4 in an equimolar amount (0.0127 mmoles) to carbamazepine were weighed and put into a glass container, to which was then added 60 μL of ethyl acetate. These were shaken at room temperature for 7 days, and the obtained residues were subjected to powder X-ray diffraction measurement. 3 mg (0.0127 mmoles) of carbamazepine and a guest compound shown in Table 4 in an equimolar amount (0.0127 mmoles) to carbamazepine were weighed and put into a glass container, to which was then added 60 μL of acetone. These were shaken at room temperature for 7 days, and the obtained residues were subjected to powder X-ray diffraction measurement.

[2] = Cocrystal formation by heating under humidified condition without menthol (Comparative Example 7); parameters: key: A cocrystal was completely formed.; B: A mixture of a cocrystal and the host compound or guest compound was formed.; C: A cocrystal was not formed (a mixture of the host compound and the guest compound was formed); details: host theophylline, no menthol, 80° C. and 90% RH
Protocol: About 30 mg (0.167 mmoles) of theophylline and […] of L(+)-arginine were weighed and put into a test tube and mixed using an agate mortar. […] 15 mg of this mixed powder was weighed and put into a test tube and heated for 6 and 21 hours, respectively in a thermo-hygrostat at 80° C. and 90% RH, and the obtained solids were subjected to powder X-ray diffraction measurement and thermal analysis.

[3] = Cocrystal screening by heat melting 1-menthol (Example 2), powder X-ray diffraction and thermal analysis; parameters: key: A cocrystal was completely formed.; B: A mixture of a cocrystal and the host compound or guest compound was formed.; C: A cocrystal was not formed (a mixture of the host compound and the guest compound was formed); details: host carbamazepine, equimolar guest, 1-menthol added, 10 hours at 80° C.
Protocol: Carbamazepine and a guest compound shown in Table 4 in an equimolar amount to carbamazepine were weighed and mixed using an agate mortar. […] Thereafter, the obtained mixed powder of carbamazepine, the guest compound, and 1-menthol was heated for 10 hours in an oven at 80° C., and the obtained solids were subjected to powder X-ray diffraction measurement and thermal analysis.

[4] = Cocrystal screening by heating method without menthol (Comparative Example 3); parameters: key: A cocrystal was completely formed.; B: A mixture of a cocrystal and the host compound or guest compound was formed.; C: A cocrystal was not formed (a mixture of the host compound and the guest compound was formed); details: host theophylline, equimolar guest, no menthol, 4 hours at 80° C.
Protocol: (§1) 3 mg (0.0167 mmoles) of theophylline and a guest compound shown in Table 1 in an equimolar amount (0.0167 mmoles) to theophylline were weighed and mixed using an agate mortar. At that time, particles having a large size to an extent that they could be distinguished through visual inspection were grinded on the agate mortar. 10 mg of this mixed powder was weighed and put into a test tube, followed by heating for 4 hours in an oven at 80° C. The obtained solid was subjected to powder X-ray diffraction measurement and thermal analysis.

[5] = Cocrystal formation with 1-menthol under humidified condition (Example 3); parameters: key: A cocrystal was completely formed.; B: A mixture of a cocrystal and the host compound or guest compound was formed.; C: A cocrystal was not formed (a mixture of the host compound and the guest compound was formed); details: host theophylline, 1-menthol added, 80° C. and 90% RH
Protocol: About 30 mg (0.167 mmoles) of theophylline and about 29 mg (0.167 mmoles) of L(+)-arginine were weighed and mixed using an agate mortar. […] 15 mg of this mixed powder was weighed and put into a test tube, to which was then added 15 mg of 1-menthol which had been grinded using an agate mortar, followed by vigorously stirring for one minute using a vortex mixer. Thereafter, the obtained mixture of theophylline, L(+)-arginine, and 1-menthol was heated for 6 and 21 hours, respectively in a thermo-hygrostat at 80° C. and 90% RH, and the obtained solids were subjected to powder X-ray diffraction measurement and thermal analysis.

[6] = Cocrystal screening by co-grinding method (Comparative Example 2); parameters: key: A cocrystal was completely formed.; B: A mixture of a cocrystal and the host compound or guest compound was formed.; C: A cocrystal was not formed (a mixture of the host compound and the guest compound was formed); details: host theophylline, equimolar guest, mixed/ground in agate mortar
Protocol: as §1, with “mortar.” for “mortar. 10 mg of this mixed powder was weighed and put into a test tube, followed by heating for 4 hours in an oven at 80° C.”, “solids were” for “solid was”

Row | Structure (SMILES) | Cocrystal formation, Comparative Example 4-3 [1] | Cocrystal formation, Comparative Example 7, Heating for 6 hours ([2]; 6 hours) | Cocrystal formation, Comparative Example 7, Heating for 21 hours ([2]; 21 hours) | Cocrystal formation, Example 2 [3] | Cocrystal formation, Comparative Example 3 [4] | Cocrystal formation, Example 3, Heating for 6 hours ([5]; 6 hours) | Cocrystal formation, Example 3, Heating for 21 hours ([5]; 21 hours) | Cocrystal formation, Comparative Example 2 [6] | Cocrystal formation, Comparative Example 4-5 ([1]; slurry in ethyl acetate)
1 | N=C(N)NCCC[C@H](N)C(=O)O [L(+)-Arginine] | — | A | A | C | C | A | A | C | 
2 | O=C(O)C(=O)O [Oxalic acid] | — |  |  | A | C |  |  | B | 
3 | O=C1NS(=O)(=O)c2ccccc21 [Saccharin] | — |  |  | A | C |  |  | C | 
4 | O=C(O)/C=C\C(=O)O [Maleic acid] |  |  |  | A | B |  |  | C | 
5 | NCC(=O)O [Glycine] | — |  |  | C | C |  |  | C | 
6 | O=C(O)c1ccccc1 [Benzoic acid] | — |  |  | A | B |  |  | C | 
7 | NC(=O)c1cccnc1 [Nicotinamide] |  |  |  | A | C |  |  | C | 
8 | C/C=C/C=C/C(=O)O [Sorbic acid] | — |  |  | A | B |  |  | C | 
9 | NC(=O)c1ccccc1 [Benzamide] |  |  |  | A | C |  |  | C | 
10 | O=S(=O)(O)CCS(=O)(=O)O [Ethanedisulfonic acid] |  |  |  | A | A |  |  | A | 
11 | O=C(O)CCCC(=O)O [Glutaric acid] | — |  |  | A | B |  |  | C | 
12 | O=C(O)CC(O)(CC(=O)O)C(=O)O [Citric acid] | — |  |  | B | B |  |  | C | —
13 | CC(C)C[C@H](N)C(=O)O [L-Leucine] | — |  |  | C | C |  |  | C | 
